Experimental data from patent publication US20240116928A1 (Gilead Sciences, Inc., priority 2022, published 2024).
pEC50, pIC50: −log10 of the molar value.

Key:
[1] = target: T1, CD73 (Homo sapiens, UniProt P21589); experiment: CD73 Biochemical IC50 Assay; conditions: CD73 enzyme (R&D system) final 0.3 nM, final AMP 15 uM, 60 mins incubation, Rapid fire
T1 sequence (P21589 27-549): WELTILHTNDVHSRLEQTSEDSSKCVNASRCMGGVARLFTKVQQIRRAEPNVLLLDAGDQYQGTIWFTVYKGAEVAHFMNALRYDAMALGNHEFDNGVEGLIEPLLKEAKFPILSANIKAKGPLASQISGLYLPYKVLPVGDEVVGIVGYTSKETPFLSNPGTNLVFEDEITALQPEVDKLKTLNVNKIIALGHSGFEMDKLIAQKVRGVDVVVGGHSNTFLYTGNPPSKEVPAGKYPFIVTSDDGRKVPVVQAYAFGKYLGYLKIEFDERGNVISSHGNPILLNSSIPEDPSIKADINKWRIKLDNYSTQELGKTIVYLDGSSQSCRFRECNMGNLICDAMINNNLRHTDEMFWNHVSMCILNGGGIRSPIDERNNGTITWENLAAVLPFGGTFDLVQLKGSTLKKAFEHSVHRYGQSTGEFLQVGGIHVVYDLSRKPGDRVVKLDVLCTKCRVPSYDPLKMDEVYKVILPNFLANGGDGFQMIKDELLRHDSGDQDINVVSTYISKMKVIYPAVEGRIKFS
Description: CD73 Biochemical IC50 Assay
Compound serial dilutions were pre-spotted into Thermo Nunc assay plate. 50 μL CD73 enzyme buffer (CD73 purchased from R&D system=0.6 nM, 25 mM Tris, pH 7.4, 5 mM MgCl2, 1 mM NaH2PO4) was added into the assay plate and incubated for 15 mins. […] After incubation for 60 mins, the supernatant 20 uL was transferred into 384-well NUNC plate pre-filled with 60 ul Quench buffer (80% organic and 20% water+0.1% FA) with internal standard. The plate was spun down at 4500 rpm for 20 mins, then 20 μl of supernatant was transferred to another Nunc plate prefilled with 80 μl of water. The samples were run using Rapid fire.

[2] = target: T1, CD73; experiment: MDA-MB-231 Cell Based CD73 Activity Assay (DMEM); parameters: endogenous in cells; host or cells: MDA-MB-231-GFP; conditions: MDA-MB-231-GFP cells, DMEM with 10% human plasma, overnight compound treatment, 200 uM AMP, 100 mins
Description: Cells were plated into assay plate with compounds pre-spotted, for an overnight compound treatment. 50 uL of 400 uM AMP (final concentration will be 200 uM) was added using Bio-tek dispenser. Plates were incubated for 100 mins. 20 uL of supernatant was transferred into 384-well NUNC plate pre-filled with 60 ul Quench buffer (80% organic and 20% water+0.1% FA) with internal standard. The plates were spun down at 4500 rpm for 20 mins, then 20 ul of supernatant was transferred to another Nunc plate prefilled with 80 ul of water. The samples were analyzed using Rapid fire.

pIC50 [1] | pEC50 [2] | SMILES
7.88 | < 7.30 | Cc1nc(-c2c[nH]c(=O)[nH]c2=O)cc(N2C[C@H](OC(=O)NC(C)C)C(F)(F)C2)n1 [Example 29, (S)-4,4-difluoro-1-(2-methyl-2′,4′-dioxo-1′,2′,3′,4′-tetrahydro-[4,5′-bipyrimidin]-6-yl)pyrrolidin-3-yl isopropylcarbamate]
7.89 | 7.46 | Cc1nc(-c2c[nH]c(=O)[nH]c2=O)cc(N2C[C@H](OC(=O)NC3(C(F)(F)F)CC3)C(F)(F)C2)n1 [Example 30, (S)-4,4-difluoro-1-(2-methyl-2′,4′-dioxo-1′,2′,3′,4′-tetrahydro-[4,5′-bipyrimidin]-6-yl)pyrrolidin-3-yl (1-(trifluoromethyl)cyclopropyl)carbamate]
